Experimental data: US11608331B2 (priority 2021, dated 2023)
Where two headings read alike, the source gives them in different places.

Key:
human furin protease = biological target: T1, human furin protease (Homo sapiens, UniProt P09958); assay: Furin protease assay; type: biochemical
T1 construct: purchased BPS Bioscience 78040

SARS-CoV-2 Mpro = SARS-CoV-2 Mpro (Severe acute respiratory syndrome coronavirus 2, UniProt P0DTD1); assay: Main protease (Mpro) assay, 3CL Protease assay kit; type: biochemical
in vitro = conditions: human
[1] = tested on: SARS-CoV-2 strain NRC-03-nhCoV; assay: microbe, parasite or virus in culture; type: cell-based
SARS-CoV-2 PLpro = SARS-CoV-2 PLpro (Severe acute respiratory syndrome coronavirus 2, UniProt P0DTD1); assay: Papain-like protease (PLpro) assay; type: biochemical; conditions: for IC50: dose response curve, read-out: IC50 against SARS-CoV-2 PLpro
[2] = read-out: IC50 against human furin protease

T1 sequence (P09958 108-794): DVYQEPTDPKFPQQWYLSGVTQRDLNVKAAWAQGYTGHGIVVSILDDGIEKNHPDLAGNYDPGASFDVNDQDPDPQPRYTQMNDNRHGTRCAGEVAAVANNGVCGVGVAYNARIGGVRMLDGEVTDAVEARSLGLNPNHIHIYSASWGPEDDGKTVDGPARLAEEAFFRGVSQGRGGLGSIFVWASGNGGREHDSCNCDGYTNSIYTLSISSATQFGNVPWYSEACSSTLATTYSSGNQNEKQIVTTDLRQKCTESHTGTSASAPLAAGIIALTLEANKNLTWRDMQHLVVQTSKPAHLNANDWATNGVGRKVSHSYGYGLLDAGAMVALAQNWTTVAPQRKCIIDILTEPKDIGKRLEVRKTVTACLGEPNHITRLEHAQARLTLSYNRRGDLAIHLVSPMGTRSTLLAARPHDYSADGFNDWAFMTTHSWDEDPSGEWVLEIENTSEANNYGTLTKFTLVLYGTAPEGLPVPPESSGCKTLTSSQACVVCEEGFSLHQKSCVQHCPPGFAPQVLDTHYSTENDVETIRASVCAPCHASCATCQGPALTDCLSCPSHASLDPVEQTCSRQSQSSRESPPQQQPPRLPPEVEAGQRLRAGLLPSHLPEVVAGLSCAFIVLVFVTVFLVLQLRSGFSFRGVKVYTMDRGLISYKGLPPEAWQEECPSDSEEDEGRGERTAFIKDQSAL

| SMILES | IC50 (human furin protease; [2]) | inhibition at 100 µg/mL (SARS-CoV-2 Mpro; read-out: inhibition activity against Mpro enzyme (inhibition percentage)) | IC50 (in vitro) | IC50 ([1]; Severe acute respiratory syndrome coronavirus 2, Vero C1008, 72 h, read-out: IC50 inhibition activity against SARS-CoV-2) | IC50 (SARS-CoV-2 PLpro) | inhibition activity against SARS-CoV-2 PLpro (SARS-CoV-2 PLpro; screening, mean±SEM of 3 replicas) | IC50 (human furin protease) | IC50 (SARS-CoV-2 Mpro; compound 13M, FIG. 10B-10C, read-out: IC50 against Mpro enzyme (converted)) | IC50 ([1]; Severe acute respiratory syndrome coronavirus 2, Vero C1008, compound 13M, FIG. 10A, read-out: antiviral activity in vitro IC50) | IC50 at 24 h (in vitro) | IC50 ([1]; Severe acute respiratory syndrome coronavirus 2, Vero C1008, Vero-E6 cells, strain NRC-03-nhCoV, 72 h, read-out: IC50 inhibition activity against SARS-CoV-2) |
| --- | --- | --- | --- | --- | --- | --- | --- | --- | --- | --- | --- |
| COc1cc(C(NC2=NC(=O)C(CC(=O)Nc3ccc(C(=O)O)cc3)S2)c2c(O)[nH]c(=O)[nH]c2=O)ccc1O (stereo not shown) [Compound 7] | 0.29 µM | 31 ± 2% | 1.67 µM | 0.77 µM | 0.085 µM | 56.4% |  |  |  |  |  |
| N=C(N/N=C/c1ccncc1)c1nonc1NCNc1nonc1C(=N)N/N=C/c1ccncc1 [Compound 13M] |  |  |  |  |  |  | 86.2 µM | 13.4 µM | ~8 µg/mL |  |  |
| N=C(N/N=C/c1ccccc1O)c1nonc1NCNc1nonc1C(=N)N/N=C/c1ccccc1O [Compound 13] | 0.29 µM |  |  |  | 0.063 µM |  |  |  |  | 0.41 µM | 0.11 µM |
